Experimental findings from patent publication US9119837B2, “Use of sEH inhibitors as analgesics” (The Regents of the University of California, priority 2005, dated 2015) are described below.

The test system of series [1] is pain or itch. Kind of series: Topical EETs in the methods of the invention (comparison of EET regioisomers). The series is classed as in vivo. The following applies: topical administration.
For series [2], the system named is LPS-induced thermal hyperalgesia. As to the kind of experiment: LPS-induced thermal hyperalgesia, hind paw withdrawal latency test (Hargreaves). The series is classed as in vivo, rat. The following applies: for LPS-induced thermal hyperalgesia, percent thermal withdrawal latency (TWL): topical in vehicle cream (Vanicream), 50 mg/kg, LPS 10 μg in hind paw, FIG. 1; for LPS-induced thermal hyperalgesia, dose dependence of percent TWL: topical in vehicle cream, LPS 10 μg, FIG. 2. The source says: The hyperalgesic response with the hind paw withdrawal test is considered to result from a combination of central and peripheral mechanisms (Kannan et al., “Endotoxin-induced local inflammation and hyperalgesia in rats mice, a new model for inflammatory pain,” Pharmacology 66:373-379 (1996)). We used the method of Hargreaves et al., “A new and sensitive method for measuring thermal nociception in cutaneous hyperalgesia”, Pain 32, 77-88 (1988) to quantify the pain response of rats treated with two sEH inhibitors and EETs. Pain was quantified using the hind paw withdrawal latency test. Male Sprague-Dawley rats (Charles River Laboratories, Inc., Wilmington, Mass.) weighing 250-300 g, were used. Animals were individually housed at UC Davis Animal Resource Facility under standard conditions with free access to food and water, and maintained for at least 1 week before the experiments. Each rat was used only once. All the experiments were performed during the daytime between 8.00 and 13.00 h (during the first phase of the light period of the diurnal cycle). Rats were first trained to the experimental chamber in three separate sessions. In the day of the experiments rats' basal response was measured and then they were treated with a neutral cream or compound containing formulated cream preceding an injection with 10 ug of endotoxin (Lipopolysaccharide, “LPS”) or capsaicin in the right hind paw to induce pain response. Pain response was then measured at 30, 60, 120 and 240 minutes post LPS or capsaicin injection. sEHIs were formulated by dissolving them in ethanol and mixing with cream in a ratio of 1:9. Eight animals per group were used. To assess thermal nociceptive responses, a commercially available device modeled after that described by Hargreaves et al., supra, was employed. This device consists of a glass surface upon which the rats are placed individually in Plexiglass cubicles (9×22×25 cm). The glass surface temperature is maintained at either 30.1° C. by a feedback-controlled, under-glass, forced-air heating system. The heating system is driven by a thermocouple attached to the bottom surface of the glass plate. The thermal nociceptive stimulus originates from a focused projection bulb mounted in a stimulus tower that is manually manipulated in a two-dimensional axis to permit the stimulus to be delivered to hind paw of each test subject. A timer is automatically actuated with the light source, and response latency is defined as the time required for the paw to show an abrupt withdrawal. Paw withdrawal is detected by a photodiode motion sensor mounted on the stimulus tower that stops the timer and terminates the stimulus. In all cases, a cut-off of 20 seconds is employed to avoid tissue injury. […]

Series [3] relates to LPS-elicited mechanical allodynia. As to the kind of experiment: LPS-elicited mechanical allodynia, von Frey filaments. The series is classed as in vivo, rat. The note with it: topical in vehicle cream; 50 mg/kg; LPS 10 μg; FIG. 3. As for the experimental part:
For the quantification of mechanical allodynia, a set of von Frey filaments with different diameters corresponding to different quantities of force applied were employed. The baseline responses of animals were first determined and than LPS was injected in the hind paw. Responses were measured 1 hr and 2 hrs after LPS injection. Eight animals per group were used. Rats' paws were stimulated with filaments of increasing diameter three times. The diameter of filaments that rats withdraw their paws were recorded.

The subject of series [4] is carrageenan-elicited thermal hyperalgesia. As to the kind of experiment: Carrageenan-elicited thermal hyperalgesia, paw withdrawal latency. The series is classed as in vivo, rat. The following applies: carrageenan injected into ipsilateral paw at time 0; AUDA-be administered at 20 hours post-exposure; FIG. 6. As for the experimental part:
Animals were exposed to carrageenan at time 0 by injection into ipsilateral paw, the contralateral paw was left untreated. AUDA-be was administered at 20 hours post-exposure to the carrageenan. Filled diamonds are the withdrawal tests of the treated paw. Filled squares are the tests of the untreated paw. To assess thermal nociceptive responses, a commercially available device modeled after that described by Hargreaves et al., supra, was employed. This device consists of a glass surface upon which the rats are placed individually in Plexiglass cubicles (9×22×25 cm). The glass surface temperature is maintained at either 30.1° C. by a feedback-controlled, under-glass, forced-air heating system. The heating system is driven by a thermocouple attached to the bottom surface of the glass plate. The thermal nociceptive stimulus originates from a focused projection bulb mounted in a stimulus tower that is manually manipulated in a two-dimensional axis to permit the stimulus to be delivered to hind paw of each test subject. A timer is automatically actuated with the light source, and response latency is defined as the time required for the paw to show an abrupt withdrawal. Paw withdrawal is detected by a photodiode motion sensor mounted on the stimulus tower that stops the timer and terminates the stimulus. In all cases, a cut-off of 20 seconds is employed to avoid tissue injury. […]

For series [5], the target named is T1, sEH (Homo sapiens, UniProt P34913).
T1 sequence (P34913 1-555): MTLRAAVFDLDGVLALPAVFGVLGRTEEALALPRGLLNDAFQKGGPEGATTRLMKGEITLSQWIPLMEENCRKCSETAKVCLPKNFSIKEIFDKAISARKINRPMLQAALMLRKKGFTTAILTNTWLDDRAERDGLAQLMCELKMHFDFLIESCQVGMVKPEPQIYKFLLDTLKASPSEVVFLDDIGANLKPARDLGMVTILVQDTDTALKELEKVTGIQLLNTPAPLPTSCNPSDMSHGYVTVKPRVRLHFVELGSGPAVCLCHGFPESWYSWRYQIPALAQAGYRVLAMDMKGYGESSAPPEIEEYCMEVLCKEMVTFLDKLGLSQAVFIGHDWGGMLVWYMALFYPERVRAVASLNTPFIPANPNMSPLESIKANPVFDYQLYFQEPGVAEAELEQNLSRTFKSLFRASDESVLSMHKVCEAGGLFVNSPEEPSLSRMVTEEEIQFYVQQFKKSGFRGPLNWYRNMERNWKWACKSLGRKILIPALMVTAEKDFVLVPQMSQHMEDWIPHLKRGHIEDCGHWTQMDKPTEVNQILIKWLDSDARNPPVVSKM
As to the kind of experiment: Inhibition of sEH activity. The series is classed as biochemical. The source says: Any of a number of standard assays for determining epoxide hydrolase activity can be used to determine inhibition of sEH. For example, suitable assays are described in Gill, et al., Anal Biochem 131, 273-282 (1983); and Borhan, et al., Analytical Biochemistry 231, 188-200 (1995)). Suitable in vitro assays are described in Zeldin et al., J Biol. Chem. 268:6402-6407 (1993). Suitable in vivo assays are described in Zeldin et al., Arch Biochem Biophys 330:87-96 (1996). […]
The enzyme also can be detected based on the binding of specific ligands to the catalytic site which either immobilize the enzyme or label it with a probe such as dansyl, fluoracein, luciferase, green fluorescent protein or other reagent. […] The enzyme also can be detected based on the generation of fluorescent products following the hydrolysis of the epoxide. […]

The nature of series [6]: Metabolic stability. The series is classed as in vitro ADME.

Consider `CCCCC/C=C\C[C@H]1O[C@H]1C/C=C\C/C=C\CCCC(=O)O` [11,12-EET], for which, in series [1], the “Effectiveness compared with other EETs in the methods of the invention” value is recorded as “ineffective or less effective than other EETs”.

Turning to `CCCCOC(=O)CCCCCCCCCCCNC(=O)NC12CC3CC(CC(C3)C1)C2` [AUDA-be, 12-(3-Adamantan-1-yl-ureido)dodecanoic acid butyl ester], in series [2], the “LPS-induced thermal hyperalgesia, percent thermal withdrawal latency (TWL)” value is listed as “block” and the “LPS-induced thermal hyperalgesia, dose dependence of percent TWL” value was “block LPS-induced thermal hyperalgesia in a dose dependent way”. The “LPS-elicited mechanical allodynia, percent mechanical withdrawal threshold (MWT)” value in series [3] is on record as “block LPS-elicited mechanical allodynia”. Moreover, in series [4], the “Carrageenan-elicited thermal hyperalgesia, thermal withdrawal latency of paw (PWL)” value was “blocks carrageenan-elicited thermal hyperalgesia”.

With `CCOCCOCCOCCCCCNC(=O)NC12CC3CC(CC(C3)C1)C2` [compound 950, Adamantan-1-yl-3-{5-[2-(2-ethoxyethoxy)ethoxy]pentyl}urea], in series [2], the “LPS-induced thermal hyperalgesia, percent thermal withdrawal latency (TWL)” value was “block” and the “LPS-induced thermal hyperalgesia, dose dependence of percent TWL” value is “block LPS-induced thermal hyperalgesia in a dose dependent way”. Further, the “LPS-elicited mechanical allodynia, percent mechanical withdrawal threshold (MWT)” value in series [3] is “block LPS-elicited mechanical allodynia”.

For the compound `CCCCCCCCCCCCNC(=O)NC12CC3CC(CC(C3)C1)C2` [ADU, N-Adamantyl-N′-dodecyl urea], the “Activity as an inhibitor of sEH” value in series [5] is “particularly high activity on sEH”. The Metabolic stability entry in series [6] is reported as “metabolically stable”.
